Source: US20030108980A1, “Bioluminescent methods for direct visual detection of environmental compounds” (priority 2000, published 2003)

What was measured:
E. coli EC100 = conditions: cellulose strips
P. fluorescens 5RL [1] = conditions: salicylate 10 and 100 ppm, cellulose filter strips, room temperature
Description: Strips were removed and excess fluid was drained. These filter strips with cells were placed on a second set of strips impregnated with salicylic acid (10 and 100 ppm).
Briefly, a 100 μl sample of an uninduced culture of Pseudomonas fluorescens 5RL was placed in a sterile petri dish containing LB broth (10 ml) supplemented with tetracycline (14 μg/mI).

P. fluorescens 5RL [2] = assay: Prototype test strip, naphthalene/salicylate bioreporter; format: cell-based; conditions: 5 ppm naphthalene in mixture with 1 ppm Hg2+ and 10 ppm toluene
From the text: (§1) 1. The bottom layer is absorbent Whatman filter paper.
(§2) 2. The second layer is an impermeable water barrier. Currently we are using aluminum foil.
(§3) 4. The fourth layer is the styrene sheet. […] There is one circle for each bioreporter.
(§4) 5. The last layer is the encapsulated cells.
(§5) Water will be wicked up the filter paper.

[3] = tested on: P. fluorescens 5RL (pUTK21); conditions: cited from earlier work
P. putida TVA8 [4] = assay: Prototype test strip, toluene bioreporter; format: cell-based; conditions: 10 ppm toluene in mixture
From the text: as §1, §2, §3, §4, §5
[…]. […] […].

P. putida TVA8 [5] = conditions: cited from earlier work
E. coli ARL3 = assay: Detection of mercury using bioluminescence, strain ARL3; format: cell-based; conditions: 500 μg HgCl2/L
Description: (§6) Strains ARL1, ARL2, and ARL3 were screened for bioluminescence production in the presence of HgCl2. Each strain was grown in LB medium to an OD546nm of 0.35 at which time 500 μg HgCl2/L was added. Induction of bioluminescence in the presence of mercury was rapid (FIG. 5) with significant light produced in 30 minutes. Strain ARL2 had higher background bioluminescence (˜31,486 cps) in the absence of mercury relative to strain ARL1 and ARL3 (˜13,798 and ˜12,762 respectively). After 20 minutes, strain ARL2 produced approximately twice the amount of bioluminescence ((˜1,791,560 cps) relative to strains ARL1 and ARL3 (˜917.496 and 825,240 cps respectively).

E. coli ARL2 = assay: Detection of mercury using bioluminescence, strain ARL2; format: cell-based; conditions: 500 μg HgCl2/L
Description: as §6

E. coli ARL1 = assay: Detection of mercury using bioluminescence, strain ARL1; format: cell-based; conditions: 500 μg HgCl2/L
Description: as §6

SMILES: O=C([O-])c1ccccc1O.[Na+] [salicylate, sodium salicylate]
- time to visible light after contact of test strips with inducer solution (E. coli EC100): less than one hour
- time to light visible to the naked eye (P. fluorescens 5RL [1]): less than 60 min

SMILES: c1ccc2ccccc2c1 [Naphthalene]
- visibility of bioluminescence on test strip (P. fluorescens 5RL [2]): visible to the naked eye
- Lower Detection Limits [3]: ˜50 ppb
- Response Time [3]: ˜1 hour

SMILES: Cc1ccccc1 [Toluene]
- visibility of bioluminescence on test strip (P. putida TVA8 [4]): only detectable with a photomultiplier
- Response Time (P. putida TVA8 [5]): 25 ppm

SMILES: [Cl][Hg][Cl] [HgCl2]
- time to significant light production (E. coli ARL3): 30 min
- bioluminescence after 20 minutes (E. coli ARL3; LB medium, OD546nm 0.35): ~825,240 cps
- time to significant light production (E. coli ARL2): 30 min
- bioluminescence after 20 minutes (E. coli ARL2; LB medium, OD546nm 0.35): ~1,791,560 cps
- time to significant light production (E. coli ARL1): 30 min
